Experimental data published in PMC5775280, “Functional Characterization and Signaling Systems of Corazonin and Red Pigment Concentrating Hormone in the Green Shore Crab, Carcinus maenas” (Frontiers in Neuroscience, 2018).
Peptide text beside a SMILES is read from it.

Tests used:
[1] = Hemolymph triglyceride levels after peptide injection; assay type: in vivo, Carcinus maenas
Protocol: (§1) Adipokinetic and glucose mobilizing activity of […] and ACP were performed by measurement of triglycerides in hemolymph ([…] et al., [2014]) and glucose (Chung and Webster, [1996]). Hemolymph samples (ca. 100 μl) were taken from crabs injected with each peptide at 0 and 90 min, and subsequently assayed.

semi-isolated heart = experiment: Cardioactivity on semi-isolated heart preparations; design: species or system Carcinus maenas; details: superfusion
Protocol: Cardioactivity of […], and ACP was performed on semi-isolated heart preparations of C. maenas. Crabs (ca. 65 mm carapace width) were ice-anesthetized and rapidly decerebrated before removing all limbs and the dorsal carapace to expose the heart and pericardial cavity. The heart was connected to a force transducer (MLT0210/A) via a micro fishing hook (size 28) and fine nylon (0.08 mm) monofilament. Connection to a PC with Chart 4.0 was via a Bridge Pod (ML301) and Powerlab 4/20 (AD Instruments Pty Ltd, Castle Hill, NSW, Australia). Transducer gain was set at maximum sensitivity (200 μV). Heart preparations were initially perfused with C. maenas physiological saline (Saver et al., [1999]) at room temperature (20°C). Once a stable heart output was achieved, hearts were firstly perfused with 1 ml saline, followed by increasing concentrations of peptides, applied in 1 ml. Crustacean cardioactive peptide (CCAP) (Bachem, Bubendorf, Switzerland), or proctolin (Sigma, Poole, UK) were positive controls (10^-11-10^-7 M). Test peptides ([…]) were perfused at 10^-8-10^-6 M for approximately 2 min at each concentration.

[2] = Hemolymph triglyceride levels after peptide injection; assay type: in vivo, Carcinus maenas; details: lipid mobilization bioassay
[3] = target: T1, C. maenas RPCHR (red pigment concentrating hormone receptor) (Carcinus maenas, UniProt A0A2L0WQF2); experiment: Aequorin luminescence Ca2+ mobilization in CHO-K1-Aeq cells transiently expressing RPCHR; assay type: cell-based; details: for EC50: CHO-K1-Aeq cells (without Gα16) transiently expressing RPCHR, luminescence response normalized to total Ca2+ response, dose response curves, means of n = 4; for binding to / activation of RPCHR: micromolar concentrations
T1 sequence (A0A2L0WQF2 1-529): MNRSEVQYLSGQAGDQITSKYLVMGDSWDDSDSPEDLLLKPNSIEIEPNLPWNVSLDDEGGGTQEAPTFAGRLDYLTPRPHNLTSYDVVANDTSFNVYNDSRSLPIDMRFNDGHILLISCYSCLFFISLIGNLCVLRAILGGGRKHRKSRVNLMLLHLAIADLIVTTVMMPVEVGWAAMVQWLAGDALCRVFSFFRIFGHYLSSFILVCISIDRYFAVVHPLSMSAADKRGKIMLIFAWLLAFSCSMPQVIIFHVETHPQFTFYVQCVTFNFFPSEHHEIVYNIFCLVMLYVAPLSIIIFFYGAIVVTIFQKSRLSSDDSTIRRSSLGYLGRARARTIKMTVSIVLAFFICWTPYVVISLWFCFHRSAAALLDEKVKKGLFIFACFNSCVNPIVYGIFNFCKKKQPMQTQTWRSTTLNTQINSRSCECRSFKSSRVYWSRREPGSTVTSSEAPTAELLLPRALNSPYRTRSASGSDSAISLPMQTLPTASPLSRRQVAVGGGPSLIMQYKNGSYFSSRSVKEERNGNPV
Protocol: (§2) Chinese hamster ovary (CHO-K1) cells containing stably expressed apoaequorin (Perkin Elmer, Boston, MA) and either Gα16 or Gq subunit (control cells) were cultured in Dulbecco's Modified Eagle Medium (DMEM) F-12 Nutrient Mixture GlutaMax (Gibco®) supplemented with 10% fetal bovine serum (Gibco®). Cells were maintained in vented T75 flasks at 37°C in 5% CO2.
(§3) Cells grown in a monolayer to approximately 60% confluency in T75 flasks were transfected with pcDNA3.1 constructs using FugeneHD (Promega) according to the manufacturer's recommendations. Briefly, transfection medium was prepared by combining 800 μl Opti-MEM® (Gibco) with 10 μg vector and 30 μl Fugene HD in a 2 ml polystyrene tube and incubated for 10 min at room temperature. The transfection reagent was added to 5 ml of fresh culture media and the cells incubated overnight at 37°C in 5% CO2. After 24 h, an additional 10 ml of culture media were added to the flasks and the cells returned to 37°C at 5% CO2 for a further overnight incubation.
(§4) On the day of the assay, cells were detached from the culture flask by incubating for 12 min in 5 ml 0.2% EDTA in PBS. The cells were washed with 10 ml DMEM clear DMEM/F-12 containing L-glutamine, 15 mM HEPES and moved to 50 ml centrifuge tubes. Cells were centrifuged for 5 min at 260 g and resuspended to a concentration of 5 × 10^6 cells ml^−1 in 0.2 μm filtered BSA medium (DMEM/F-12 containing L-glutamine, 15 mM HEPES + 0.1% BSA). Coelenterazine h (Invitrogen, Paisley, UK) was added to a concentration of 5 μM and the cells incubated for 4 h in the dark at room temperature whilst gently rocking. The cells were diluted 10-fold and incubated for a further 60 min before use in the assay. Synthetic peptides (GeneCust, Dudelange, Luxembourg) were reconstituted in 30% acetonitrile, dried in small aliquots by vacuum centrifugation and subsequently redissolved in BSA medium. Fifty microliter aliquots were then dispensed into quadruplicate wells of a white 96-well plate (OptiPlate, PerkinElmer). Cell suspensions were gently stirred and injected in 50 μl aliquots into each well using a Mithras LB 940 microplate reader (Berthold Technologies, Bad-Wildbad, Germany) and light emission (Ca^2+ response) recorded for 30 s. Cells were then lysed by injection of 0.3% Triton-X in BSA medium and light emission recorded for a further 10 s to measure total Ca^2+ response. BSA medium was used for blank measurements (6 replicate wells per plate) and mock transfection with empty vectors carried out for negative controls. Data was analyzed using MikroWin v5.18 (Mikrotek Laborsysteme GmbH) and SigmaPlot v.13 (Systat Software, Inc.). Receptor response was normalized against total Ca^2+ response.

[4] = tested on: putative adipokinetic hormone/corazonin-related peptide receptor (ACPR); experiment: Receptor assay with putative ACPR; assay type: cell-based, Carcinus maenas
Protocol: as §2
Cells grown in a monolayer to approximately 60% confluency in T75 flasks were transfected with pcDNA3.1 constructs using FugeneHD (Promega) according to the manufacturer's recommendations. Briefly, transfection medium was prepared by combining 800 μl Opti-MEM® (Gibco) with 10 μg vector and 30 μl Fugene HD in a 2 ml polystyrene tube and incubated for 10 min at room temperature. […]
On the day of the assay, cells were detached from the culture flask by incubating for 12 min in 5 ml 0.2% EDTA in PBS. […] Cell suspensions were gently stirred and injected in 50 μl aliquots into each well using a Mithras LB 940 microplate reader (Berthold Technologies, Bad-Wildbad, Germany) and light emission (Ca^2+ response) recorded for 30 s. Cells were then lysed by injection of 0.3% Triton-X in BSA medium and light emission recorded for a further 10 s to measure total Ca^2+ response. […] Data was analyzed using MikroWin v5.18 (Mikrotek Laborsysteme GmbH) and SigmaPlot v.13 (Systat Software, Inc.). […]

[5] = tested on: red and black epidermal chromatophores, dactyl of the 5th walking leg; experiment: Chromatophore pigment migration bioassay in vivo; design: species or system Carcinus maenas; details: for pigment migration (concentration) in red and black epidermal chromatophores: injection after 40 min dispersion with 5 pmol PDH, 0.1–100 pmol/crab for RPCH or AKH, 100 pmol/crab for CRZ or ACP, scored 5 and 20 min after injection
Protocol: Pigmentary effector activity of […], Locusta migratoria AKH-I, and ACP were measured in vivo, using small (15-20 mm carapace width) C. maenas. Crabs were firstly adapted to a white background, light intensity 300 lx for 1 h. Pigment dispersion of red and black chromatophores in the […] of the 5th walking leg were microscopically observed and indices of dispersion scored according to Hogben and Slome ([1931]). Red and black chromatophores were firstly fully dispersed by injection of 5 pmol C. maenas pigment dispersing hormone ([…]) in 10 μl saline into the hypobranchial sinus, using hand-drawn glass microcapillaries. Chromatophore dispersion indices were scored at 0, 20, 40 min. Peptides were then injected and chromatophores subsequently scored after 5 and 20 min.

[6] = Hemolymph glucose levels after peptide injection; assay type: in vivo, Carcinus maenas; details: injection 100, 10 pmol per crab
Protocol: as §1

[7] = target: T2, C. maenas CRZR (corazonin receptor) (Carcinus maenas, UniProt A0A2L0WQE5); experiment: Aequorin luminescence Ca2+ mobilization in CHO-K1-Aeq cells transiently expressing CRZR; assay type: cell-based; details: for EC50: CHO-K1-Aeq cells (without Gα16) transiently expressing CRZR, luminescence response normalized to total Ca2+ response, dose response curves, means of n = 4; for bioluminescent response at CRZR compared with the homologous crab/insect ligand (Arg^7-CRZ): several independent experiments
T2 sequence (A0A2L0WQE5 1-617): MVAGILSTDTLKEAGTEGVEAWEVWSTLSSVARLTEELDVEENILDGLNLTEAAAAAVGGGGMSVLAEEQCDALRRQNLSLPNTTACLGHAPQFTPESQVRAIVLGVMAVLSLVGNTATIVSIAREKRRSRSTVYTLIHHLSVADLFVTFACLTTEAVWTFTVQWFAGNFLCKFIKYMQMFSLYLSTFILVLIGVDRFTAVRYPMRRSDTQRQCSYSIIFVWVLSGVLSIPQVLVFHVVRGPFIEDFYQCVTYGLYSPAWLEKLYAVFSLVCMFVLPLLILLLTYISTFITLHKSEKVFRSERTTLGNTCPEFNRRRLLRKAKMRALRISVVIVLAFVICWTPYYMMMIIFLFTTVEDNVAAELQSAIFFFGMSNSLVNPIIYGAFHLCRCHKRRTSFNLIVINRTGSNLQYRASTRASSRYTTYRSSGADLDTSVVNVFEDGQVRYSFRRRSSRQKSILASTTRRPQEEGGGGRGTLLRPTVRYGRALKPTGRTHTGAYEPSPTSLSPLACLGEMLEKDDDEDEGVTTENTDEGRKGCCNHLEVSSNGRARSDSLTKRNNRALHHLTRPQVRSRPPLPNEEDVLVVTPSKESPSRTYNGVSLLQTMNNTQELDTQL
Protocol: as §2, §3, §4

In the case of `CC[C@H](C)[C@H](NC(=O)[C@@H]1CCC(=O)N1)C(=O)N[C@H](C(=O)N[C@@H](Cc1ccccc1)C(=O)N[C@@H](CO)C(=O)N[C@@H](CCCNC(=N)N)C(=O)N[C@@H](CO)C(=O)N[C@@H](Cc1c[nH]c2ccccc12)C(=O)N[C@H](C(=O)N1CCC[C@H]1C(=O)N[C@@H](CCC(N)=O)C(N)=O)C(C)C)[C@@H](C)O` [ACP] (HELM PEPTIDE1{[Glp].I.T.F.S.R.S.W.V.P.Q.[am]}$$$$V2.0), the “hemolymph triglyceride levels, 0 min” value ([1]; injection 100 pmol per crab, 0 min, mean ± 1 SEM, n = 6, SEM) is reported as 1.47 ± 0.44 µg/µL, the “hemolymph triglyceride levels, 90 min” value ([1]; injection 100 pmol per crab, 90 min, mean ± 1 SEM, n = 6, no significant change over 90 min, SEM) is reported as 1.28 ± 0.34 µg/µL and the “activity on circulating triglycerides” value ([1]; injection 100, 10 pmol per crab) is reported as “neither CRZ nor ACP exhibited any biological activity”. For the same molecule, the “cardioacceleratory effect on semi-isolated hearts” value (semi-isolated heart; concentrations up to 10^−6 M, 20°C) was “completely without cardioacceleratory effect”, the “effect on hemolymph diacylglycerol levels” value [2] was “completely without effect” and the EC50 [3] was greater than 20000 nM. The “binding to / activation of RPCHR” value [3] was “vanishingly small dose-dependent binding”, the “binding to putative ACPR” value [4] was “did not bind” and the “pigment migration (concentration) in red and black epidermal chromatophores” value [5] was “completely ineffective”. For the same molecule, the “activity on circulating glucose” value [6] was “neither CRZ nor ACP exhibited any biological activity”.

With `C[C@@H](O)[C@H](NC(=O)[C@H](Cc1c[nH]c2ccccc12)NC(=O)CNC(=O)[C@H](Cc1c[nH]cn1)NC(=O)[C@H](CO)NC(=O)[C@H](Cc1ccc(O)cc1)NC(=O)[C@H](CCC(N)=O)NC(=O)[C@H](Cc1ccccc1)NC(=O)[C@@H](NC(=O)[C@@H]1CCC(=O)N1)[C@@H](C)O)C(=O)N[C@@H](CC(N)=O)C(N)=O` [His^7-CRZ] (HELM PEPTIDE1{[Glp].T.F.Q.Y.S.H.G.W.T.N.[am]}$$$$V2.0) the EC50 [7] was 0.3 nM and the “bioluminescent response at CRZR compared with the homologous crab/insect ligand (Arg^7-CRZ)” value [7] was “somewhat higher bioluminescent response at lower doses”.

With `CC(C)C[C@H](NC(=O)[C@@H]1CCC(=O)N1)C(=O)N[C@@H](CC(N)=O)C(=O)N[C@@H](Cc1ccccc1)C(=O)N[C@H](C(=O)N1CCC[C@H]1C(=O)N[C@@H](CC(N)=O)C(=O)N[C@@H](Cc1c[nH]c2ccccc12)C(=O)NCC(=O)N[C@H](C(N)=O)[C@@H](C)O)[C@@H](C)O` [Lom AKH-1, reference compound] (HELM PEPTIDE1{[Glp].L.N.F.T.P.N.W.G.T.[am]}$$$$V2.0) the EC50 [3] was 0.07 nM and the “pigment migration (concentration) in red and black epidermal chromatophores” value [5] was “slightly less effective compared to RPCH”.

In the case of `C[C@@H](O)[C@H](NC(=O)[C@H](Cc1c[nH]c2ccccc12)NC(=O)CNC(=O)[C@H](Cc1c[nH]cn1)NC(=O)[C@H](CO)NC(=O)[C@H](Cc1ccc(O)cc1)NC(=O)[C@@H](NC(=O)[C@H](Cc1ccccc1)NC(=O)[C@@H](NC(=O)[C@@H]1CCC(=O)N1)[C@@H](C)O)[C@@H](C)O)C(=O)N[C@@H](CC(N)=O)C(N)=O` [Thr^4, His^7-CRZ] (HELM PEPTIDE1{[Glp].T.F.T.Y.S.H.G.W.T.N.[am]}$$$$V2.0), the EC50 [7] is reported as 0.14 nM and the “bioluminescent response at CRZR compared with the homologous crab/insect ligand (Arg^7-CRZ)” value [7] is reported as “somewhat higher bioluminescent response at lower doses”.

For “GnRH: evolutionarily-related peptide (mammalian) GnRH, gonadotropin releasing hormone [reference compound]”, the “binding to / activation of RPCHR” value [3] was “Neither receptor was activated” and the “activation of CRZR” value ([7]; even at micromolar concentrations) was “Neither receptor was activated”.

For “NSELINSILGLPKVMNDA-NH2 [PDH, C. maenas pigment dispersing hormone, reference compound]”, the “pigment dispersion of chromatophores” value ([5]; injection of 5 pmol, over 40 min) was “expansion of both red and black chromatophores”.

For proctolin [reference compound], the “kind of response on semi-isolated hearts” value (semi-isolated heart; positive control) was “very pronounced inotropic response” and the “threshold response on semi-isolated hearts” value (semi-isolated heart; positive controls, CCAP: most sensitive preparations) was “about 10^−9 M”.
